Results from patent US10494414B2, “Immunoglobulin G-binding peptide” (KANEKA CORPORATION, priority 2014, dated 2019).

Columns and labels:
[1] = system: Anti-EGFR antibody - Fab; assay: Biacore surface plasmon resonance affinity for IgG-Fab of anti-EGFR monoclonal antibody; format: binding
Procedure: The affinity of the peptide obtained in the above-described Example 1(2) for the Fc region and Fab region of anti-RSV monoclonal antibody was evaluated using a biosensor Biacore3000 (manufactured by GE Healthcare Bioscience) utilizing surface plasmon resonance. In the present Example, the IgG-Fc or IgG-Fab obtained in the above-described Example 2(1) was immobilized on a sensor tip, and the peptide solution was flowed across the sensor tip to detect the interaction between the two. The IgG-Fab or IgG-Fc was immobilized on a sensor tip CM5 by amine coupling method using N-hydroxysuccinimide (NHS) and N-ethyl-N′-(3-dimethylaminopropyl)carbodiimide hydrochloride (EDC), and ethanolamine was used for blocking. All of the sensor tip and reagents for immobilization was manufactured by GE Healthcare Bioscience. The IgG-Fab solution was diluted to about 10 times using a buffer for immobilization (10 mM AcOH—AcONa, pH 4.5), and the IgG-Fab was immobilized on the sensor tip in accordance with the protocol attached to the Biacore 3000. In addition, a reference cell as negative control was also prepared by activating another flow cell on the tip with EDC/NHS and then immobilizing ethanolamine only. Peptide solutions having concentrations of 16 nM, 64 nM or 256 nM were prepared using a running buffer (20 mM NaH2PO4—Na2HPO4, 150 mM NaCl, 0.005% P-20, pH 7.4). Each peptide solution was added to the sensor tip in a flow rate of 40 μL/min for 1 minute. Bonding response curves at the time of addition (association phase, 1 minute) and after the addition (dissociation phase, 1 minute) were sequentially obtained at a measurement temperature of 25° C. […]
(§1) Also, the affinity of the peptide according to the present invention (SEQ ID NO: 2) for IgG-Fab prepared from anti-EGFR monoclonal antibody (“Erbitux” sold by Bristol-Myers Squibb) and anti-TNFα monoclonal antibody (“Remicade” sold by Mitsubishi Tanabe Pharma Corporation) was evaluated. The IgG-Fab was prepared in a similar manner to the above-described (1), and the affinity was basically evaluated in a similar manner to the above-described (2). […]

[2] = target: T1, Anti-RSV antibody - Fc (Homo sapiens, UniProt P01857); assay: Biacore surface plasmon resonance affinity for IgG-Fc of anti-RSV monoclonal antibody; format: binding
T1 construct: a Fc region of a heavy chain is composed of CH2 and CH3; purchased CHUGAI PHARMACEUTICAL CO., LTD; Synagis
From the text: (§2) A humanized monoclonal IgG product as a raw material was fragmented into a Fab fragment and a Fc fragment using papain, and only the Fab fragment was separated and purified. Hereinafter, a method for producing IgG-Fc/IgG-Fab derived from anti-RSV monoclonal antibody (generic name: Palivizumab) is described. The term “RSV” is an abbreviation of RS virus. In the present disclosure, when other IgG-Fc and IgG-Fab were used for evaluation, the fragments were basically prepared in a similar method.
(§3) Specifically, a humanized monoclonal IgG product (“Synagis” manufactured by CHUGAI PHARMACEUTICAL CO., LTD., in the case of anti-RS virus monoclonal agent) was dissolved in a buffer for papain treatment (0.1M AcOH—AcONa, 2 mM EDTA, 1 mM cysteine, pH 5.5), and agarose immobilized by papain (“Papain Agarose from papaya latex” manufactured by SIGMA) was added thereto. The mixture was incubated with stirring by a rotator at 37° C. for about 8 hours. The IgG-Fc was purified from the reaction mixture which contained both of a Fab fragment and a Fc fragment and which was separated from the agarose immobilized by papain by recovering the IgG-Fc as a flow-through fraction of an affinity chromatography using Kappa Select column (manufactured by GE Healthcare Bioscience). The IgG-Fab was purified by recovering the IgG-Fab as a flow-through fraction in an affinity chromatography using KanCapA column (manufactured by GE Healthcare Bioscience). The obtained crude IgG-Fc solution was subjected to purification by gel filtration chromatography using Superdex 75 10/300 GL column to obtain IgG-Fc solution. In the chromatography, a standard buffer was used for equilibration and separation. The obtained crude IgG-Fab solution was similarly subjected to purification. […]
(§4) The affinity of the peptide obtained in the above-described Example 1(2) for the Fc region and Fab region of anti-RSV monoclonal antibody was evaluated using a biosensor Biacore3000 (manufactured by GE Healthcare Bioscience) utilizing surface plasmon resonance. […]

[3] = system: Anti-TNFα antibody - Fab; assay: Biacore surface plasmon resonance affinity for IgG-Fab of anti-TNFα monoclonal antibody; format: binding
Procedure: The affinity of the peptide obtained in the above-described Example 1(2) for the Fc region and Fab region of anti-RSV monoclonal antibody was evaluated using a biosensor Biacore3000 (manufactured by GE Healthcare Bioscience) utilizing surface plasmon resonance. In the present Example, the IgG-Fc or IgG-Fab obtained in the above-described Example 2(1) was immobilized on a sensor tip, and the peptide solution was flowed across the sensor tip to detect the interaction between the two. The IgG-Fab or IgG-Fc was immobilized on a sensor tip CM5 by amine coupling method using N-hydroxysuccinimide (NHS) and N-ethyl-N′-(3-dimethylaminopropyl)carbodiimide hydrochloride (EDC), and ethanolamine was used for blocking. All of the sensor tip and reagents for immobilization was manufactured by GE Healthcare Bioscience. The IgG-Fab solution was diluted to about 10 times using a buffer for immobilization (10 mM AcOH—AcONa, pH 4.5), and the IgG-Fab was immobilized on the sensor tip in accordance with the protocol attached to the Biacore 3000. […]
as §1
Each peptide was prepared in a similar method to the above-described Example 1 except that the combination of single-stranded oligo DNAs shown in Table 3 was used for preparing expression plasmid. […] As representative data, the affinity for IgG-Fab of anti-TNFα monoclonal antibody was evaluated by a similar manner to the above-described Example 2. […] For example, the value in the left graph is logarithm (Log 10) of a value calculated by dividing an affinity constant (KA) of each peptide by an affinity constant of SEQ ID NO: 2. […]

[4] = system: Anti-RSV antibody - Fab; assay: Biacore surface plasmon resonance affinity for IgG-Fab of anti-RSV monoclonal antibody; format: binding, human
From the text: as §2, §3, §4

[5] = system: Fab fragment; assay: Association constant of wild Protein G to Fab fragment in Biacore system; format: binding; settings: 25° C., pH 7.4
From the text: For example, as a binding parameter, association constant (KA) and dissociation constant (KD) can be used ([NT] et al., “Real-Time Analysis Experimental Method for Interaction Between Biological Substances”, Springer-Verlag Tokyo, 1998, p. 41). An association constant between the present invention peptide and a Fc fragment or a Fab fragment can be measured by immobilizing a Fc fragment or a Fab fragment on a sensor tip and adding the present invention peptide into a flow channel under a condition of the temperature of 25° C. and pH 7.4 in Biacore system. In an experiment utilizing Biacore system, the order of a parameter may be largely changed depending on an experimental condition, an analysis method and/or the kind of used original IgG. Under such a circumstance, when an evaluation is also conducted by using a wild Protein G in the same experimental condition and analysis method, it becomes standard whether the measured association constant is larger or not in comparison with the association constant of wild Protein G to a Fab region. The performance of a conventional wild Protein G is not sufficient as a peptide which binds to both of a Fc region and a Fab region of an immunoglobulin G, since the binding force thereof to a Fab region is not sufficient. […] A wild Protein G is easily available as a commercial reagent for study. […]

[6] = system: Fab region; settings: Non-patent Documents 1 and 2; cited from earlier work
[7] = target: T2, IgG-Fc of anti-TNFα monoclonal antibody (Homo sapiens, UniProt P01857); assay: Binding response versus peptide concentration on immobilized IgG-Fc (Biacore); settings: about 10000 RU immobilized, peptide 25-200 nM, response 1 minute after addition, SEQ ID NO: 14 specifically 0.4 to 0.6
T2 construct: a Fc region of a heavy chain is composed of CH2 and CH3; purchased Mitsubishi Tanabe Pharma Corporation Remicade

[8] = system: IgG-Fab of anti-TNFα monoclonal antibody; assay: Binding response versus peptide concentration on immobilized IgG-Fab (Biacore); settings: about 10000 RU immobilized, peptide 25-200 nM, response 1 minute after addition, SEQ ID NO: 14 specifically 0.4 to 0.6
[9] = Anti-RSV antibody - Fc immobilized, 25° C., pH 7.4, 1:1 binding model
[10] = Anti-RSV antibody - Fab immobilized, 25° C., pH 7.4, 1:1 binding model

Question: For “SEQ ID NO: 2: IgG-binding peptide (SpG mutant) having the amino acid sequence of SEQ ID NO: 2, with N-terminal Gly-Pro-Leu-Gly-Ser from the vector (TTYKLILNGKTLTGYTTAIAADAATAEIVLKQFANDNGIDGEWTYDDATKTFTVTE; N-terminal vector-derived residues; Immunoglobulin-binding peptide)”, which KA ([1]; KA=kon/koff) is on record?
Answer: The KA was 6.5e+07 M⁻¹.

Question: What about the koff ([1]; peptide 25, 100, 400 nM) of the same substance?
Answer: The koff was 0.039 s⁻¹.

Question: What about the kon ([1]; peptide 25, 100, 400 nM) of the same substance?
Answer: Its kon is 252000 s/M.

Question: And the koff [2, 9]?
Answer: The koff was 0.028 s⁻¹.

Question: What about the kon [2, 9] of the same substance?
Answer: Its kon is 97000 s/M.

Question: What about the KA ([2]; Anti-RSV antibody - Fc, KA=kon/koff) of the same substance?
Answer: The KA was 3.5e+06 M⁻¹.

Question: And the KA ([3]; KA=kon/koff)?
Answer: The KA was 4e+07 M⁻¹.

Question: What about the koff ([3]; peptide 25, 100, 400 nM) of the same substance?
Answer: The koff was 0.01 s⁻¹.

Question: What about the kon ([3]; peptide 25, 100, 400 nM) of the same substance?
Answer: The kon was 413000 s/M.

Question: What about the koff [4, 10] of the same substance?
Answer: The koff was 0.003 s⁻¹.

Question: And the kon [4, 10]?
Answer: Its kon is 66000 s/M.

Question: And the KA ([4]; Anti-RSV antibody - Fab, KA=kon/koff)?
Answer: The KA was 2e+07 M⁻¹.

Question: With “wild Protein G: conventional wild Protein G, available as a commercial reagent for study” as the substance, how does the “association constant KA to a Fab fragment, as an order” value [5] read?
Answer: The value was “about 10^5”.

Question: With “Protein G: IgG-binding cell wall protein produced by Streptococcus sp. classified into Group G” as the substance, how does the “association constant (KA) to a Fab region, times less than that to a Fc region” value [6] read?
Answer: Its value is 10 times.

Question: With “SEQ ID NO: 14: IgG-binding peptide; difference from SEQ ID NO: 2: Xaa21 = Asp, Xaa28 = Lys (TTYKLILNGKTLTGYTTAIADDAATAEKVLKQFANDNGIDGEWTYDDATKTFTVTE; Immunoglobulin-binding peptide)” as the substance, how does the “inclination of approximate curve of binding response versus peptide concentration” value [7] read?
Answer: Its value is “about 0.5”.

Question: What about the “inclination of approximate curve of binding response versus peptide concentration” value [8] of the same substance?
Answer: The value was “about 0.5”.
